Experimental data reported in patent US9783536B2, “Nitrogen-containing heterocyclic compound or salt thereof” (FUJIFILM Corporation, priority 2013, dated 2017).
Like-named read-outs stand apart in the source and are kept apart here.

Legend:
human PI3Kα protein = molecular target: T1, human PI3Kα protein (Homo sapiens, UniProt P42336); assay: PI3Kα enzyme assay (ADP-Glo); type: biochemical; details: read-out: PI3Kα enzyme inhibitory activity
T1 construct: purchased Carna Biosciences, Inc; host or cells: baculovirus expression system
T1 sequence (P42336 whole entry): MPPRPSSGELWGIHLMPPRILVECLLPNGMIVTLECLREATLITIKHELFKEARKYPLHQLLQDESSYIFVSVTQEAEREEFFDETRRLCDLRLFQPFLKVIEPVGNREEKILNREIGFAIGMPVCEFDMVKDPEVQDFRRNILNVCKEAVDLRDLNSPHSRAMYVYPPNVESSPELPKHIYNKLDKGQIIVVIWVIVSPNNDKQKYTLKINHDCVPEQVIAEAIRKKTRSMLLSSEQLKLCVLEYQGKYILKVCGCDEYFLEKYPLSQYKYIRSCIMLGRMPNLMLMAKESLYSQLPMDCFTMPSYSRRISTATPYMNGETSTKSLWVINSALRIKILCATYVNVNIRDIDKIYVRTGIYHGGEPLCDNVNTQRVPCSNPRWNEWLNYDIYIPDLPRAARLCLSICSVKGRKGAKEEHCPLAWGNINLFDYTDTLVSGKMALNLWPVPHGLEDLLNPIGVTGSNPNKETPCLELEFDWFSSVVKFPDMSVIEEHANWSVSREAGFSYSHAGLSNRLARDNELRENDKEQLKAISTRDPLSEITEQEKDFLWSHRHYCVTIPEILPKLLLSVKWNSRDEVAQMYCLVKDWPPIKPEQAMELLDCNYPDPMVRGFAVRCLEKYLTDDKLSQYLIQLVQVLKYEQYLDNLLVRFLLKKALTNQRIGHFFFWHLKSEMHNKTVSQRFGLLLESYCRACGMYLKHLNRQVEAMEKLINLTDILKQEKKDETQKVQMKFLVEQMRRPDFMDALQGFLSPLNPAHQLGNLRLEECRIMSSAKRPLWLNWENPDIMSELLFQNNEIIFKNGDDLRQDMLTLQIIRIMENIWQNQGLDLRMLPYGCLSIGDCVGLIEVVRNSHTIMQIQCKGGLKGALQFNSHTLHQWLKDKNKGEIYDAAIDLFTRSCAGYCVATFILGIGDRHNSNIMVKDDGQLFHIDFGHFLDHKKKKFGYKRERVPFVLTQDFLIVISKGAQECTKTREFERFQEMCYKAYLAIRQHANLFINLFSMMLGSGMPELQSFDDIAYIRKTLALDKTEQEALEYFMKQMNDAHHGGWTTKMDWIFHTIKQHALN
T1 sequence (P27986 whole entry partner): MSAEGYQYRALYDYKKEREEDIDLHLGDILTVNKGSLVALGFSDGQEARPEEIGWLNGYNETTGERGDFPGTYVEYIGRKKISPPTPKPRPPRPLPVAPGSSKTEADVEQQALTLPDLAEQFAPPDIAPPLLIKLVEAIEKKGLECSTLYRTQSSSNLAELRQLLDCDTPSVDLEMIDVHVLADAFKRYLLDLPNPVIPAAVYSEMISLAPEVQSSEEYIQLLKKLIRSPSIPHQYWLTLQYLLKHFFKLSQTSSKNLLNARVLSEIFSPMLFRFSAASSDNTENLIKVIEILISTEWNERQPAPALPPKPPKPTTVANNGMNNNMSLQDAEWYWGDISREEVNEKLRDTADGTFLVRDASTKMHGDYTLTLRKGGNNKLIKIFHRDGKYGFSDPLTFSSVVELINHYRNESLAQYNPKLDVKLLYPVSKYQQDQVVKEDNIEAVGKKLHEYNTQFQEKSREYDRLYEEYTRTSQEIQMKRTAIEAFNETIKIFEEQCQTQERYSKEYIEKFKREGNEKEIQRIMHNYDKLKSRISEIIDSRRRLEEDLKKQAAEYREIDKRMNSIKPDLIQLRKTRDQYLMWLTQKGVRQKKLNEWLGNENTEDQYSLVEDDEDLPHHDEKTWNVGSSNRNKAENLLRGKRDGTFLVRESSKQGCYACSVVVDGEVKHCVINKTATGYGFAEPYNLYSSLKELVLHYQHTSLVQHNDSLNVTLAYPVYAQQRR
How it was run: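 Biotinylated human PI3Kα (baculovirus-expressed, 4.5 nmol/L) pre-incubated 15 min with compound in Tris-HCl pH 7.5, MgCl2, BSA; reaction 60 min at 25° C with 50 μmol/L PIP2 and 100 μmol/L ATP final. ADP quantified by ADP-Glo luminescence; IC50 calculated.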

[1] = molecular target: T2, GST fusion human ERK2 protein (Homo sapiens, UniProt P28482); assay: ERK2 enzyme assay (2); type: biochemical; details: read-out: ERK2 enzyme inhibitory activity (2)
T2 construct: purchased Carna Biosciences, Inc; host or cells: E. coli expression system
T2 sequence (P28482 whole entry, the tested form may be a part): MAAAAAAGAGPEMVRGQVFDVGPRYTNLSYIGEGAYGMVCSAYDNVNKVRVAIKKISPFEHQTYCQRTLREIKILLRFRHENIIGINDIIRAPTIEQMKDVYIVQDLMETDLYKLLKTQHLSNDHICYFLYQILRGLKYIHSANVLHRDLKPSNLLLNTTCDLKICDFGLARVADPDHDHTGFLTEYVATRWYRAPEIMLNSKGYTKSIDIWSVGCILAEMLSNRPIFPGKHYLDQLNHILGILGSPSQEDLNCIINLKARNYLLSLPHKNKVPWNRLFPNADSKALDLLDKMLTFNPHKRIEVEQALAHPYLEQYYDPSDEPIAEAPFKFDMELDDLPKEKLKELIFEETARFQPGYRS
How it was run: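 IC50 values come from mobility-shift measurement of phosphorylated versus unphosphorylated 5-FAM peptide substrate after EDTA quench. Beforehand, compound and 1.25 nmol/L E. coli-expressed GST–human ERK2 stood 15 min at room temperature (pH 7.5), then 1 mmol/L ATP and 4.25 μmol/L substrate (final) were added for 120 min at 25 °C.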

Row | Compound | IC50 (human PI3Kα protein) [nM] | IC50 ([1]; ERK2 enzyme assay (2)) [nM] | IC50 [1] [nM]
1 | CC(C)c1cnnc(Nc2ccc3ncc(-n4cnc(CO)c4)cc3n2)c1 [Example 0497, (1-(6-((5-isopropylpyridazin-3-yl)amino)-1,5-naphthyridin-3-yl)-1H-imidazol-4-yl)methanol] | 1000 to 10000 | < 1000 | 
2 | CC(C)c1cnnc(Nc2ccc3ncc(-c4cnn(C5CC5)c4)cc3n2)c1 [Example 0563, 7-(1-Cyclopropyl-1H-pyrazol-4-yl)-N-(5-isopropylpyridazin-3-yl)-1,5-naphthyridine-2-amine] | < 1000 | < 1000 | 
3 | CC(C)c1cnnc(Nc2ccc3ncc(NC4CCCCC4)cc3n2)c1 [Example 0877] | < 1000 | 1000 to 10000 | 
4 | CCCc1cnnc(Nc2ccc3ncc(-c4cnn(C)c4)cc3n2)c1 [Example 0918] | < 1000 |  | < 1000
5 | CC(C)c1cnnc(Nc2ccc3ncc(-c4cnc(N5CCN(C)CC5)s4)cc3n2)c1 [Example 0498, N-(5-isopropylpyridazin-3-yl)-7-(2-(4-methylpiperazin-1-yl)thiazol-5-yl)-1,5-naphthyridine-2-amine] | < 1000 | < 1000 | 
6 | COCCn1cc(-c2nn(C)cc2-c2cnc3ccc(Nc4cc(C(C)C)cnn4)nc3c2)cn1 [Example 0784] | < 1000 | < 1000 | 
7 | CC(C)CC(=O)N1CCC(Cn2cc(-c3cnc4ccc(Nc5cc(C(C)C)cnn5)nc4c3)cn2)CC1 [Example 0535] | < 1000 | < 1000 | 
8 | CC(C)c1cnnc(Nc2ccc3ncc(N4CCC(C(N)=O)C4)cc3n2)c1 (centres unmarked) [Example 0898] | < 1000 | 1000 to 10000 | 
9 | CC(C)c1cnnc(Nc2ccc3ncc(-c4cnn(CC5CCN(C(=O)C6CCCCC6)CC5)c4)cc3n2)c1 [Example 0538] | < 1000 | < 1000 | 
10 | CC(C)c1cnnc(Nc2ccc3ncc(-c4cn(C)nc4Br)cc3n2)c1 [Example 0931] | < 1000 |  | < 1000
11 | CC(C)c1cnnc(Nc2ccc3ncc(-c4cnn(CCOC5CNC5)c4)cc3n2)c1 [Example 0740, 7-(1-(2-(azetidin-3-yloxy)ethyl)-1H-pyrazol-4-yl)-N-(5-isopropylpyridazin-3-yl)-1,5-naphthyridine-2-amine] | < 1000 | < 1000 | 
12 | Cc1cncc(-c2cnc3ccc(Nc4cc(C(C)C)cnn4)nc3c2)c1 [Example 0598] | 1000 to 10000 | < 1000 | 
13 | COCCOC(CN1CCOCC1)Cn1cc(-c2cnc3ccc(Nc4cc(C(C)C)cnn4)nc3c2)cn1 (centres unmarked) [Example 0744] | < 1000 | < 1000 | 
14 | COc1ccc(OCc2nn(C)cc2-c2cnc3ccc(Nc4cc(C(C)C)cnn4)nc3c2)cc1 [Example 0806] | < 1000 | < 1000 | 
15 | CC(C)c1cnnc(Nc2ccc3ncc(-c4cnn(CCCN5CC[C@H](F)C5)c4)cc3n2)c1 [Example 0428] | < 1000 | < 1000 | 
16 | Cc1nn(C)c(C)c1-c1cnc2ccc(Nc3cc(C(C)C)cnn3)nc2c1 [Example 0624, N-(5-isopropylpyridazin-3-yl)-7-(1,3,5-trimethyl-1H-pyrazol-4-yl)-1,5-naphthyridine-2-amine] | 1000 to 10000 | < 1000 | 
17 | CC(C)c1cnnc(Nc2ccc3ncc(N4CCN(C)C(=O)C4)cc3n2)c1 [Example 0887] | < 1000 | 1000 to 10000 | 
18 | COc1c(-c2cnn(C)c2)cnc2ccc(Nc3cc(C(C)C)cnn3)nc12 [Example 0914, N-(5-isopropylpyridazin-3-yl)-8-methoxy-7-(1-methyl-1H-pyrazol-4-yl)-1,5-naphthyridine-2-amine] | < 1000 |  | < 1000
19 | Cn1cc(-c2cnc3ccc(Nc4cc(C(C)(C)O)cnn4)nc3c2)cn1 [Example 0543, 2-(6-((7-(1-Methyl-1H-pyrazol-4-yl)-1,5-naphthyridin-2-yl)amino)pyridazin-4-yl)propan-2-ol] | < 1000 | < 1000 | 
20 | CC(C)c1cnnc(Nc2ccc3ncc(-c4cn(C)nc4-c4ccc(OCCN5CCCCC5)cc4)cc3n2)c1 [Example 0778] | < 1000 | < 1000 | 
21 | CC(C)c1cnnc(Nc2ccc3ncc(-c4cn(C)nc4C4CN(C(=O)OC(C)(C)C)C4)cc3n2)c1 [Example 0779, tert-butyl 3-(4-(6-((5-isopropylpyridazin-3-yl)amino)-1,5-naphthyridin-3-yl)-1-methyl-1H-pyrazol-3-yl)azetidine-1-carboxylate] | < 1000 | < 1000 | 
22 | COC(CN1CC(F)C1)Cn1cc(-c2cnc3ccc(Nc4cc(C(C)C)cnn4)nc3c2)cn1 (centres unmarked) [Example 0815, 7-(1-(3-(3-Fluoroazetidin-1-yl)-2-methoxypropyl)-1H-pyrazol-4-yl)-N-(5-isopropylpyridazin-3-yl)-1,5-naphthyridine-2-amine] | < 1000 | < 1000 | 
23 | CC(C)c1cnnc(Nc2ccc3ncc(-c4cnn(CC(=O)N5CCCCC5)c4)cc3n2)c1 [Example 0561] | < 1000 | < 1000 | 

Row | Compound | IC50 (human PI3Kα protein) [nM] | IC50 ([1]; ERK2 enzyme assay (2)) [nM] | IC50 [1] [nM]
24 | CC(C)c1cnnc(Nc2ccc3ncc(N4CCC(F)(F)C4)cc3n2)c1 [Example 0893] | < 1000 | < 1000 | 
25 | Cn1cc(-c2cnc3ccc(Nc4cc(C(C)(C)O)cnn4)nc3c2)c(-c2ccncc2)n1 [Example 0782] | < 1000 | < 1000 | 
26 | CC(C)c1cnnc(Nc2ccc3ncc(-c4cnn(Cc5ccc(N)cc5)c4)cc3n2)c1 [Example 0717, 7-(1-(4-Aminobenzyl)-1H-pyrazol-4-yl)-N-(5-isopropylpyridazin-3-yl)-1,5-naphthyridine-2-amine] | < 1000 | < 1000 | 
27 | CC(C)c1cnnc(Nc2ccc3ncc(-c4cnn(CC5CCN(C(=O)N(C)C)CC5)c4)cc3n2)c1 [Example 0529] | < 1000 | < 1000 | 
28 | CC(=O)N1CCN(c2cnc3ccc(Nc4cc(C(C)C)cnn4)nc3c2)CC1 [Example 0872] | < 1000 | < 1000 | 
29 | CCCCOC1CN(CCCn2cc(-c3cnc4ccc(Nc5cc(C(C)C)cnn5)nc4c3)cn2)C1 [Example 0707] | < 1000 | < 1000 | 
30 | CC(C)c1cnnc(Nc2ccc3ncc(-c4cn(C)nc4-c4ccnc(OCCN(C)C)c4)cc3n2)c1 [Example 0751] | < 1000 | < 1000 | 
31 | CC(C)c1cnnc(Nc2ccc3ncc(-c4cnn(CCCN(C)CC(=O)OC(C)(C)C)c4)cc3n2)c1 [Example 0661] | < 1000 | < 1000 | 
32 | COCC1(Nc2cnc3ccc(Nc4cc(C(C)C)cnn4)nc3c2)CCC1 [Example 0889] | 10000 to 50000 | 10000 to 50000 | 
33 | Cn1cc(-c2cnc3ccc(Nc4cc(C5CCC5)cnn4)nc3c2)cn1 [Example 0577, N-(5-cyclobutylpyridazin-3-yl)-7-(1-methyl-1H-pyrazol-4-yl)-1,5-naphthyridine-2-amine] | < 1000 | < 1000 | 
34 | CC(C)c1cnnc(Nc2ccc3ncc(C4=CCN(C(=O)OC(C)(C)C)C4)cc3n2)c1 [Example 0892, tert-butyl 3-(6-((5-isopropylpyridazin-3-yl)amino)-1,5-naphthyridin-3-yl)-2,5-dihydro-1H-pyrrole-1-carboxylate] | 1000 to 10000 | 1000 to 10000 | 
35 | CC(C)c1cnnc(Nc2ccc3ncc(-c4cnn(C[C@H]5CCC(=O)N5C)c4)cc3n2)c1 [Example 0568] | < 1000 | < 1000 | 
36 | CC(C)c1cnnc(Nc2ccc3ncc(-c4cn(C)nc4N4CCC4)cc3n2)c1 [Example 0932] | < 1000 |  | < 1000
37 | CC(C)c1cnnc(Nc2ccc3ncc(-c4cn(C)nc4-c4cnn(C)c4)cc3n2)c1 [Example 0582] | < 1000 | < 1000 | 
38 | CC(C)c1cnnc(Nc2ccc3ncc(-c4cnn(CCCN5CCCCC5=O)c4)cc3n2)c1 [Example 0415, 1-(3-(4-(6-((5-Isopropylpyridazin-3-yl)amino)-1,5-naphthyridin-3-yl)-1H-pyrazol-1-yl)propyl)piperidin-2-one] | < 1000 | < 1000 | 
39 | CC(C)c1cnnc(Nc2ccc3ncc(N4CC(Oc5ccccc5)C4)cc3n2)c1 [Example 0860] | 1000 to 10000 | 1000 to 10000 | 
40 | CC(C)c1cnnc(Nc2ccc3ncc(/C=C/c4ccccn4)cc3n2)c1 [Example 0656, (E)-N-(5-isopropylpyridazin-3-yl)-7-(2-(pyridin-2-yl)vinyl)-1,5-naphthyridine-2-amine] | < 1000 | 1000 to 10000 | 
41 | CC1CN(CCCn2cc(-c3cnc4ccc(Nc5cc(C(C)C)cnn5)nc4c3)cn2)C(C)CO1 (centres unmarked) [Example 0674] | < 1000 | < 1000 | 
42 | CC(C)c1cnnc(Nc2ccc3ncc(-c4cn(C)nc4COc4cccnc4)cc3n2)c1 [Example 0799, N-(5-isopropylpyridazin-3-yl)-7-(1-methyl-3-((pyridin-3-yloxy)methyl)-1H-pyrazol-4-yl)-1,5-naphthyridine-2-amine] | < 1000 | < 1000 | 
43 | Cc1nn(C)cc1-c1cnc2ccc(Nc3cc(C(C)(C)O)cnn3)nc2c1 [Example 0547] | < 1000 | < 1000 | 
44 | CC(C)c1cnnc(Nc2ccc3ncc(-c4cnn(CCCN(C)CC(F)(F)F)c4)cc3n2)c1 [Example 0700, N-(5-isopropylpyridazin-3-yl)-7-(1-(3-(methyl (2,2,2-trifluoroethyl)amino)propyl)-1H-pyrazol-4-yl)-1,5-naphthyridine-2-amine] | < 1000 | < 1000 | 
45 | COCC(=O)N1CCC(Cn2cc(-c3cnc4ccc(Nc5cc(C(C)C)cnn5)nc4c3)cn2)CC1 [Example 0537] | < 1000 | < 1000 | 
46 | CC(C)c1cnnc(Nc2ccc3ncc(-c4cn(C)nc4NCc4ccncc4)cc3n2)c1 [Example 0835] | < 1000 | < 1000 | 
